Measured values as given in publication PMC4539421, “A Novel Microbisporicin Producer Identified by Early Dereplication during Lantibiotic Screening” (BioMed Research International, 2015).
No end group written: not given here.

Columns and labels:
L145 C. albicans = assay type: cell-based, Candida albicans; conditions: broth microdilution assay [27]
Procedure: (§1) Broth and mycelium screening extracts from the F.I.I.R.V. collection of Actinoallomurus strains isolated according as above were screened in liquid microplate assays for their antimicrobial activity on S. aureus 209 ATCC 6538P (L100) and to its L-form cells (L3751), as described in detail in [7]. In brief, S. aureus 209 ATCC 6538P (L100) and its L-form cells (L3751) were maintained at −80°C in Nutrient Broth (Difco) to which 20% (v/v) glycerol was added. EBH/S supplemented with 5% (v/v) horse serum was used as medium. For the wild-type inoculum, 10 μL of extracts previously dissolved in DMSO : H2O 1 : 9 (v/v) were added to 1 × 10^5 CFU/mL in 90 μL of culture broth. For L-form cells, aliquots of liquid cultures grown overnight in EBHI/S to O.D.620 nm = 0.2 were used as inoculum. Incubation time was 24 h at 35°C in air, and then growth inhibition was measured at O.D.620 nm. Reference actagardine, planosporicin, microbisporicin, mersacidin, and nisin standards were used and MIC levels were determined by broth microdilution assay as recommended by the National Committee for Clinical Laboratory Standards. To identify β-lactam producers, antimicrobial activity versus S. aureus 209 ATCC 6538P (L100) was measured in a liquid microplate assay after adding the following cocktail of β-lactamases: Penicillase Type I from Bacillus cereus (Sigma P0389), 0.001 U/mL; Penicillase Type II from Bacillus cereus (Sigma P6018), 0.002 U/mL; Penicillase type III from Enterobacter cloacae (Sigma P4399), 0.0025 U/mL; and Penicillase type IV from Enterobacter cloacae (Sigma P4524), 0.5 U/mL. To identify glycopeptide producers, antimicrobial activity versus S. aureus 209 ATCC 6538P (L100) was measured in a liquid microplate assay after adding 2 mg/mL of Ac-Lys-D-alanyl-D-alanine (Chem-Impex International Inc., IL).
(§2) Antimicrobial activity was determined by broth microdilution assay according to standard guidelines. […]

L100 S. aureus ATCC6538P = test: MIC by broth microdilution, S. aureus; assay type: cell-based, Staphylococcus aureus; conditions: broth microdilution assay [27]
Procedure: as §1
(§3) Antimicrobial activity was determined by broth microdilution assay according to standard guidelines. The growth media utilized to determine the MIC were cation-adjusted Difco Mueller Hinton Broth (MHB) for Staphylococci, Enterococci, and E. coli, Todd Hewitt Broth (THB) for Streptococci, and RPMI-1640 medium (RPMI) for C. albicans. Typically, a twofold serial dilution of the test compound was performed in a sterile 96-well microplate inoculated with 10^4 CFU/mL of the test strain in the appropriate medium. The microplate was then incubated for 18–24 h at 35°C.

L49 S. pyogenes = test: MIC by broth microdilution, S. pyogenes; assay type: cell-based, Streptococcus pyogenes; conditions: broth microdilution assay [27]
Procedure: as §1, §2

L1400 S. aureus MRSA = test: MIC by broth microdilution, MRSA; assay type: cell-based, Staphylococcus aureus; conditions: broth microdilution assay [27]; MRSA clinical isolate
Procedure: as §1, §3

L3751 S. aureus L-form = test: MIC by broth microdilution, S. aureus L-form; assay type: cell-based, Staphylococcus aureus; conditions: broth microdilution assay [27]; L-form cells
Procedure: Staphylococcus aureus 209 ATCC 6538P (L100) were purchased from the American Type Culture Collection (ATCC; Manassas VA). L-form cells (L3751) were prepared from L100 by exposure to 100 U of penicillin in Enterococcal Brain Heart Infusion/S (EBH/S) supplemented with 5% NaCl, 5% sucrose, and 10% horse serum as previously described. L-forms were then cultured on similarly supplemented brain heart infusion agar containing no antibiotic. S. aureus Smith ATCC19636 (L819), Streptococcus pyogenes C203 ATCC12384 (L49), and other clinical isolates (S. aureus L1400, Enterococcus faecalis L559, Enterococcus faecalis Van A L560, Escherichia coli SKF12140 L47, and Candida albicans SKF2270 L145) were maintained in the Fondazione Istituto Insubrico Ricerca per la Vita (F.I.I.R.V.) culture collection (L collection) at Gerenzano, Italy.
as §1, §2

L47 E. coli = assay type: cell-based, Escherichia coli; conditions: broth microdilution assay [27]
Procedure: as §1, §2

S. aureus = test: Bioautography of HPLC fractions, S. aureus; assay type: cell-based, Staphylococcus aureus; conditions: 1 mL HPLC fractions dried, resuspended in 100 μL 10% DMSO, 10 μL tested
Procedure: (§4) For bioautography, fractions (1 mL, eluting at 1 mL/min) from the HPLC column were collected, dried, and resuspended in 100 μL aqueous solution at 10% (v/v) DMSO. 10 μL were tested for antimicrobial activity. UV and mass spectra of molecules present in the active fractions were compared with those collected in the ABL database, which contains data on approximately 30,000 microbial metabolites collected from literature and patents since 1950 [20, 28], and in the commercially available Antibase (http://wwwuser.gwdg.de/~hlaatsc/antibase.htm).

S. aureus L-form L3751 = test: Bioautography of HPLC fractions, S. aureus L-form; assay type: cell-based, Staphylococcus aureus; conditions: 1 mL HPLC fractions dried, resuspended in 100 μL 10% DMSO, 10 μL tested
Procedure: as §4

| Substance | MIC (L145 C. albicans) | MIC (L100 S. aureus ATCC6538P) | MIC (L49 S. pyogenes) | MIC (L1400 S. aureus MRSA) | MIC (L3751 S. aureus L-form) | MIC (L47 E. coli) | Growth inhibition by HPLC fraction (bioautography) (S. aureus) | Growth inhibition by HPLC fraction (bioautography) (S. aureus L-form L3751) |
| --- | --- | --- | --- | --- | --- | --- | --- | --- |
| Planosporicin | >128 µg/mL | 2 µg/mL | <1 µg/mL | 16 µg/mL | >128 µg/mL | >128 µg/mL | – | – |
| Microbisporicin | >128 µg/mL | ≤0.13 µg/mL | <1 µg/mL | ≤0.13 µg/mL | >128 µg/mL | >128 µg/mL | – | – |
| Actagardine | >128 µg/mL | 32 µg/mL | 2 µg/mL | 16 µg/mL | >128 µg/mL | >128 µg/mL | – | – |
| Mersacidin (CTFTLPGGGGVCTLTSECIC; also: lantibiotic mersacidin, thioether rings not placed; UniProt P43683 49-68, looked up) [lantibiotic standard] | – | 4 µg/mL | – | 8 µg/mL | 64 µg/mL | – | – | – |
| Microbisporicin A2 | – | – | – | – | – | – | inhibits the microbial growth | but not its L-form |
